This is an account of results in US11439615B2, “Lipoxin and lipoxin analogue mediated neuroprotection and treatments” (University Health Network, priority 2017, dated 2022).

Usually EC50 stands for the concentration needed to bring the measured effect to its halfway point.

One test has as its system primary RGCs. Briefly: Primary RGCs under serum deprivation, cell and neurite survival (β3-tubulin). In kind it is cell-based, rat. The following applies: 1 μM, 48 hours of serum and supplement deprivation. The protocol: For astrocytes: Primary mature retinal astrocytes (RA) were isolated and cultured as previously described (46). Briefly, eyes were dissected out of adult Wistar rats and placed in ice-cold MEM-H17 media. Isolated retinas were digested by shaking in MEM-H17 containing papain and DNAse, followed by trituration to disperse cell-aggregates. When cultures reached confluence, the cells were placed on a rotating shaker for 6-8 hours to remove microglia and then re-plated. A glial-specific expression profile was confirmed by probing the cultures with a panel of glia microglia and neuronal markers (44). For RGCs: RGCs were purified using magnetic MicroBeads (Miltenyi Biotec, Germany) according to the manufacturer's protocol. Briefly; retinal cell suspensions were prepared from 8-10 day old rats and incubated with CD90.1 microbeads, and then carefully washed with DPBS/BSA buffer. The suspension was centrifuged at 130×g and the supernatant aspirated. Cells were then incubated with biotinylated depletion antibodies against microglia and endothelial cells. The labeled cell suspension was then incubated with magnetic Anti-Biotin MACSiBead™ Particles, and placed in a weak magnetic field. The pre-enriched cell suspension was centrifuged, and resuspended in fresh DPBS/BSA buffer and applied to a MACs MS separation column in the presence of a strong magnetic field to select for CD90.1-bound RGCs. To increase RGC purity, the eluted fraction was enriched over a second column. Purified RGCs were eluted and plated on poly-D-lysine coated dishes. The cells were cultured in Neurobasal-A media (Gibco) supplemented with 2% calf serum, B27, L-glutamine, BDNF, CNTF, forskolin and pen/strep.
To further confirm direct lipoxin activity in primary neurons, the ability of LXA4 or LXB4 to protect primary RGCs was tested. RGCs were isolated by immunopanning according to established methods. The cells were subjected to serum deprivation (SD), and then stained for β3-tubulin to quantify cell and neurite survival. Under normal serum, the RGCs extended an extensive network of neurites. […]

For test [1], the system named is HT22 cells. The experiment in a line: Mitosox mitochondrial oxidative stress in glutamate challenged HT22 cells. It counts as cell-based. Conditions: 1 μM, HT22 cells challenged with glutamate, vs vehicle. On the procedure:
HT22 cells challenged with glutamate were then assayed for mitochondrial oxidative stress using the Mitosox reagent, in combination with 1 μM LXA4, LXB4, and the LXA4 receptor ALX/FPR2 agonists Quinc-1 and Mmk-1.

Test [2] concerns retinal ganglion cell (RGC). The experiment in a line: Mouse chronic glaucoma model (circumlimbal suture ocular hypertension). In kind it is in vivo. The following applies: 0.1 μg/μL locally and systemically every other day from week 5, n=10; for loss of RGC (RBPMS flatmount counts): end of 12 weeks; for reduction of RGC function (pSTR) / reduction of retinal nerve fiber layer (RNFL) thickness: week 12. The protocol: LXA4 and LXB4 treatment were assessed and found to be efficacious in a mouse chronic glaucoma model. Chronic ocular hypertension was induced in weaned male C57BL/6 mice using a monocular circumlimbal suture. From week 5, they were treated with either PBS vehicle, LXA4 or LXB4 (0.1 μg/μL, locally and systemically, every other day) (shaded areas). Retinal function (electroretinogram) and structure (optical coherence tomography) were measured weekly in all groups for 12 weeks. At the end of 12 weeks, animals were euthanized and retinal ganglion cell (RGC) counts were analyzed on retinal flatmounts by RBPMS immunostaining. […] (n=10 per group, bars represent S.E.M.).

In test [3] the test system is HT22 cells. The experiment in a line: Glutamate challenge of HT22 neuronal cells, viability. The following applies: for efficacy of neuroprotection / EC50: HT22 cells exposed to glutamate stress, nonlinear regression; for EC50: Mus musculus, HT-22, n=3/point, read-out: EC50 of neuroprotection; for viability of glutamate challenged HT22 cells: increasing concentrations up to 500 nM, 5 mM glutamate. It counts as cell-based. On the procedure: An in vitro assay to recapitulate key aspects of the acute KA model was established. In this case, unconcentrated ACM was applied to the glutamate sensitive neuronal cell line HT22 (66, 67). Glutamate challenge of 5 mM was titrated to induce 60-80% cell death (ie: 20-40% survival). […] The media was concentrated for proteomic analyses.
LXA4 and LXB4 promote direct neuroprotective signaling. To the inventor's knowledge, a role for lipoxins as direct neuroprotective or neurotrophic factors has not been reported. Although their established anti-inflammatory actions extend to the CNS (29-32). However, it was hypothesized they may have indirect protective effects. In order to test whether the protective activity was direct or indirect, LXA4 or LXB4 was applied to neuronal cells in an established in vitro assay.
There is no established receptor for LXB4. However, LXB4 shares structural homology with LXA4 and the DHA-derived resolving D2 (RvD2), which mediate their actions via FPR2 or GPR18 (74), respectively. Therefore, it was assessed whether specific receptor antagonists for FPR2 or GPR18 could block LXB4 mediated protection.
As shown in FIG. 14 lipoxin neuroprotection is dose responsive. Dose responses were generated for LXA4 (open circles) and LXB4 (closed circles) in HT22 cells exposed to glutamate stress, followed by nonlinear regression analyses.

The subject of a further test is primary cortical neurons. The experiment in a line: Primary cortical neurons under paraquat oxidative stress, neuron number. In kind it is cell-based. Conditions: n=5. From the text: Quantification of neuron number following oxidative stress from the redox cycling compound paraquat in primary cortical neurons.

Regarding `CCCCC[C@H](O)[C@H](O)/C=C/C=C/C=C\C=C\[C@@H](O)CCCC(=O)O` [LXB4, 5S,14R,15S-trihydroxy-6E,8Z,10E,12E-eicosatetraenoic acid], in the test on primary RGCs, the “neurite degeneration following serum deprivation (intact neurite ratio)” value is listed as “strongly rescued” and the “neuron survival following serum deprivation” value is reported as “significant rescue”. The “mitochondrial oxidative stress (Mitosox)” value with HT22 cells [1] is recorded as “reduce mitochondrial oxidative stress”. Also, in test [2], the “loss of RGC (RBPMS flatmount counts)” value is recorded as −12.2±0.9%, the “reduction of RGC function (pSTR)” value was −20.9±1.0% and the “reduction of retinal nerve fiber layer (RNFL) thickness” value was −20.9±1.0%. Moreover, in the test with HT22 cells [3], the efficacy of neuroprotection is recorded as 0.81, the concentration giving a half-maximal response (EC50) amounted to 39.2 nM and the “viability of glutamate challenged HT22 cells” value was “significantly increased viability”. For the same compound, the “neuron number following oxidative stress from paraquat” value in the test with primary cortical neurons is recorded as “have activities”.
Turning to `CCCCC[C@H](O)/C=C/C=C\C=C\C=C\[C@@H](O)[C@@H](O)CCCC(=O)O` [LXA4, 5S,6R,15S-trihydroxy-7E,9E,11Z,13E-eicosatetraenoic acid], in the test with primary RGCs, the “neuron survival following serum deprivation” value is “significant rescue”. In the test with HT22 cells [1], the “mitochondrial oxidative stress (Mitosox)” value is reported as “reduce mitochondrial oxidative stress”. In addition, in test [2], the “loss of RGC (RBPMS flatmount counts)” value is given as −14.1±1.0%, the “reduction of RGC function (pSTR)” value was −24.0±1.3% and the “reduction of retinal nerve fiber layer (RNFL) thickness” value is recorded as −23.8±1.6%. Also, in the test on HT22 cells [3], the efficacy of neuroprotection stood at 0.89, the 50% effective concentration (EC50) turned out to be 631 nM and the “viability of glutamate challenged HT22 cells” value is reported as “significantly increased viability”. In the test with primary cortical neurons, the “neuron number following oxidative stress from paraquat” value is “have activities”.
